Test results as given in patent publication US7276519B2, “Thieno[3,2-b]pyridine-6-carbonitriles and thieno[2,3-b]pyridine-5-carbonitriles as protein kinase inhibitors” (Wyeth, priority 2002, dated 2007).
“And” between values parts separate entries of the source, which are not always exact repeats. Identical values can stand only once. Like-named read-outs stand apart in the source and are kept apart here.

What was measured:
[1] = target: T1, Recombinant human Src enzyme (Homo sapiens, UniProt P12931); assay: Src kinase assay (LANCE FRET); type: biochemical; details: Table 3; 100 μM ATP, biotinylated Cdk1 peptide substrate
T1 construct: purchased PanVera P3044
Experimental: Recombinant human Src enzyme was obtained from PanVera (P3044). […] Homogeneous fluorescence resonance energy transfer kinase assays were performed using the europium/APC detection format (LANCE, Perkin Elmer). Src enzyme (10 ng) was mixed with biotinylated peptide (final concentration 2 μM), 50 mM Hepes (pH 7.5), 10 mM MgCl2, 20 μg/ml BSA, 0.001% Brij-35 (sigma), 100 μM ATP, 1% DMSO. The kinase reaction was incubated for 70 min at 37° C. The reaction was stopped with EDTA at a final concentration of 30 mM EDTA/25 mM Hepes (pH 7.5)/10 μg/ml BSA. The mixture was combined with Eu-labeled anti-phosphotyrosine antibody PT66 (Perkin Elmer, AD0068) and Streptavidin Surelight-APC (Perkin Elmer, CR130-100) in 50 mM Hepes (pH 7.5)/20 μg/ml BSA, and incubated for 30 min according to manufacturer's specifications. […] Multiple entries for a given compound indicate that it was tested multiple times.

[2] = test system: Rat2 fibroblasts stably transformed with v-Src/Hu c-Src fusion gene; assay: Anchorage independent Src-transformed fibroblast proliferation assay; type: cell-based, rat
Experimental: Anchorage Independent Src-Transformed Fibroblast Proliferation Assay Rat2 fibroblasts stably transformed with a plasmid containing a CMV promotor controlled v-Src/Hu c-Src fusion gene in which the catalytic domain of human c-Src was inserted in place of the v-Src catalytic domain in the v-Src gene are used for the measurement of src dependent suspension growth. […] Multiple entries for a given compound indicate that it was tested multiple times.

[3] = target: T2, Rat2 fibroblasts stably transformed with v-Src/Hu Lck fusion gene (Homo sapiens, UniProt P06239, cells depend on it, form not given); assay: Anchorage independent Lck-transformed fibroblast proliferation assay; type: cell-based, rat; details: Table 3; read-out: Lck Cells IC50
T2 construct: Candidates are e.g. Schmidt-Ruppin A (P00524) or Prague C (P00526); The human Lck catalytic domain stands in place of the v-Src catalytic domain
In short: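 Rat2 fibroblasts expressing a CMV-driven v-Src/human Lck catalytic-domain fusion grown in suspension on ultra-low attachment plates, 10,000 cells/well. Compound added Day 2 as two-fold dilutions from 10 to 0.009 micromolar; MTS added Day 5, absorbance read at 490 nm. IC50 derived from blank-corrected % of no-compound control.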

[4] = Rattus norvegicus, Rat2, read-out: Src Cells IC50 μM or % inhib at 10 μM (IC50 values), Table 3
[5] = read-out: Src Cells IC50 μM or % inhib at 10 μM (IC50 values), Table 3
[6] = Rattus norvegicus, Rat2, Table 3, read-out: Src Cells IC50 μM or % inhib at 10 μM (IC50 values)
[7] = Table 3, read-out: Src Cells IC50 μM or % inhib at 10 μM (IC50 values)

T1 sequence (P12931 whole entry): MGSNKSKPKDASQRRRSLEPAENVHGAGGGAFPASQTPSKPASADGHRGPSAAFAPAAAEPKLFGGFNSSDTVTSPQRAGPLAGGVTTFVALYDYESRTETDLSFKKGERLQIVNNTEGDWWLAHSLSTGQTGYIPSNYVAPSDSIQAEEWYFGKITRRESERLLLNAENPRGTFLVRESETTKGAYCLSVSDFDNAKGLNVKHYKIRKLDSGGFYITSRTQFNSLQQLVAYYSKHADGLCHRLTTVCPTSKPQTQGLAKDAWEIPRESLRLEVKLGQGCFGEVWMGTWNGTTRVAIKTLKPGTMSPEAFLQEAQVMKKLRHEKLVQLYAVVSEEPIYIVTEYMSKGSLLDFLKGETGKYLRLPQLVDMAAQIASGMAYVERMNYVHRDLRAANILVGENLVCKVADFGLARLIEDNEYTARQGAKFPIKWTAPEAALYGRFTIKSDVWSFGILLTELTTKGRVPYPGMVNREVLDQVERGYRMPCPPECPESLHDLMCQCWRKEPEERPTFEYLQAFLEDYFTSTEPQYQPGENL
T2 sequence (P06239 whole entry, change not shown, the tested form may be a part): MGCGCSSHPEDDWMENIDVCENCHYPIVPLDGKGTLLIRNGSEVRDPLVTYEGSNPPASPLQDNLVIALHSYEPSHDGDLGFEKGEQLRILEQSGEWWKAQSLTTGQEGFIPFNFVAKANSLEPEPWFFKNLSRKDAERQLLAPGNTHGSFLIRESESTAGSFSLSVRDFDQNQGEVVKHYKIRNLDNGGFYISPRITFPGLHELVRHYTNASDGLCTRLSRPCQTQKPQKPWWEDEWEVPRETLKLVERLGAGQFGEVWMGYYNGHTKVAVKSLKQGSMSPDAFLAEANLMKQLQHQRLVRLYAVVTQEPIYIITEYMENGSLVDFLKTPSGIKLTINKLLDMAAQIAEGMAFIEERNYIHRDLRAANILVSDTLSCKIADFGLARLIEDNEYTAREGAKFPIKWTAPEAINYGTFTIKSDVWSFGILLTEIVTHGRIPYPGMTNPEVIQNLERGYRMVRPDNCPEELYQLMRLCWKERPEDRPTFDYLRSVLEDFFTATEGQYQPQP

COc1cc(Nc2c(C#N)cnc3cc(-c4ccc(CN5CCSCC5)cc4)sc23)c(Cl)cc1Cl [Example 94, 7-[(2,4-dichloro-5-methoxyphenyl)amino]-2-[4-(thiomorpholin-4-ylmethyl)phenyl]thieno[3,2-b]pyridine-6-carbonitrile]
IC50 [1]: 0.058 µM and 0.046 µM
IC50 [2, 4]: 5.52 µM
IC50 [2, 5]: 2.92 µM and 3.17 µM
melting point: 198 to 201 °C
GI50 [3]: 0.932 µM and 0.907 µM and 1.17 µM

COc1cc(Nc2c(C#N)cnc3cc(-c4ccc(CN5CCN(C)CC5)cn4)sc23)c(Cl)cc1Cl [Example 103, 7-[(2,4-dichloro-5-methoxyphenyl)amino]-2-{5-[(4-methylpiperazin-1-yl)methyl]pyridin-2-yl}thieno[3,2-b]pyridine-6-carbonitrile]
IC50 [1]: 0.011 µM and 0.0096 µM
IC50 [2, 6]: 0.401 µM
IC50 [2, 7]: 0.445 µM
melting point: 229 to 232 °C
GI50 [3]: 0.058 µM and 0.071 µM

CCCCNCc1ccc(-c2cc3ncc(C#N)c(Nc4cc(OC)c(Cl)cc4Cl)c3s2)cc1 [Example 104, 2-{4-[(butylamino)methyl]phenyl}-7-[(2,4-dichloro-5-methoxyphenyl)amino]thieno[3,2-b]pyridine-6-carbonitrile]
IC50 [1]: 0.01 µM and 0.012 µM
IC50 [2, 6]: 0.837 µM
IC50 [2, 7]: 0.939 µM
melting point: 167 to 169 °C
GI50 [3]: 0.252 µM and 0.235 µM

COc1cc(Nc2c(C#N)cnc3cc(-c4ccc(CN5CC[S+]([O-])CC5)cc4)sc23)c(Cl)cc1Cl [Example 105, 7-[(2,4-dichloro-5-methoxyphenyl)amino]-2-{4-[(1-oxidothiomorpholin-4-yl)methyl]phenyl}thieno[3,2-b]pyridine-6-carbonitrile]
IC50 [1]: 0.0085 µM and 0.007 µM
IC50 [2, 6]: 0.473 µM
IC50 [2, 7]: 0.55 µM
melting point: 242 to 245 °C
GI50 [3]: 0.222 µM and 0.235 µM

COc1cc(Nc2c(C#N)cnc3cc(-c4ccc(CNCCCO)cc4)sc23)c(Cl)cc1Cl [Example 107, 7-[(2,4-dichloro-5-methoxyphenyl)amino]-2-(4-{[(3-hydroxypropyl)amino]methyl}phenyl)thieno[3,2-b]pyridine-6-carbonitrile]
IC50 [1]: 0.009 µM and 0.011 µM
IC50 [2, 6]: 0.531 µM
IC50 [2, 7]: 0.543 µM
melting point: 141 to 143 °C
GI50 [3]: 0.063 µM and 0.065 µM

COc1cc(Nc2c(C#N)cnc3cc(-c4ccc(CN5CCOCC5)cn4)sc23)c(Cl)cc1Cl [Example 108, 7-[(2,4-dichloro-5-methoxyphenyl)amino]-2-[5-(morpholin-4-ylmethyl)pyridin-2-I]thieno[3,2-b]pyridine-6-carbonitrile]
IC50 [1]: 0.013 µM and 0.012 µM
IC50 [2, 6]: 0.474 µM
IC50 [2, 7]: 0.319 µM
melting point: 227 to 229 °C
GI50 [3]: 0.201 µM and 0.24 µM

COc1cc(Nc2c(C#N)cnc3cc(-c4ccc(C(=O)N5CCN(C)CC5)cc4)sc23)c(Cl)cc1Cl [Example 117, 7-[(2,4-dichloro-5-methoxyphenyl)amino]-2-{4-[(4-methylpiperazin-1-yl)carbonyl]phenyl}thieno[3,2-b]pyridine-6-carbonitrile]
IC50 [1]: 0.015 µM and 0.011 µM
IC50 [2, 4]: 0.388 µM
IC50 [2, 5]: 0.274 µM
melting point: 240 to 243 °C (dec.)
GI50 [3]: 0.129 µM and 0.171 µM

CCOc1cc(Nc2c(C#N)cnc3cc(-c4ccc(CN5CCN(C)CC5)cc4)sc23)c(Cl)cc1Cl [Example 123, 7-[(2,4-dichloro-5-ethoxyphenyl)amino]-2-{4-[(4-methylpiperazin-1-yl)methyl]phenyl}thieno[3,2-b]pyridine-6-carbonitrile]
IC50 [1]: 0.943 µM and 1.02 µM
IC50 [2, 4]: > 10 µM
melting point: 227 to 229 °C
GI50 [3]: 3.23 µM and 4.69 µM

COc1cc(Nc2c(C#N)cnc3cc(-c4ccc(CCN(C)C)cc4)sc23)c(Cl)cc1Cl [Example 134, 7-[(2,4-dichloro-5-methoxyphenyl)amino]-2-{4-[2-(dimethylamino)ethyl]phenyl}thieno[3,2-b]pyridine-6-carbonitrile]
IC50 [1]: 0.0076 µM and 0.01 µM
IC50 [2, 4]: 0.505 µM
IC50 [2, 5]: 0.337 µM
melting point: 196 to 197 °C
GI50 [3]: 0.13 µM and 0.17 µM

COc1cc(Nc2c(C#N)cnc3c(-c4ccc(CN(C)C)cc4)csc23)c(Cl)cc1Cl [Example 141, 7-[(2,4-Dichloro-5-methoxyphenyl)amino]-3-{4-[(dimethylamino)methyl]phenyl}thieno[3,2-b]pyridine-6-carbonitrile]
IC50 [1]: 4.35 µM and 5.04 µM
IC50 [2, 6]: 4.52 µM
IC50 [2, 7]: 4.11 µM
melting point: 201 to 202 °C
GI50 [3]: 3.18 µM and 4.24 µM

COc1cc(Nc2c(C#N)cnc3c(-c4ccc(CN5CCN(C)CC5)cc4)csc23)c(Cl)cc1Cl [Example 142, 7-[(2,4-dichloro-5-methoxyphenyl)amino]-3-{4-[(4-methylpiperazin-1-yl)methyl]phenyl}thieno[3,2-b]pyridine-6-carbonitrile]
IC50 [1]: > 10 µM
IC50 [2, 6]: 3.25 µM
IC50 [2, 7]: 1.99 µM
melting point: 197 to 198 °C
GI50 [3]: 3.54 µM and 4.35 µM

COc1cc(Nc2c(C#N)cnc3c(-c4ccc(CN5CCOCC5)cc4)csc23)c(Cl)cc1Cl [Example 143, 7-[(2,4-dichloro-5-methoxyphenyl)amino]-3-[4-(morpholin-4-ylmethyl)phenyl]thieno[3,2-b]pyridine-6-carbonitrile]
IC50 [1]: > 10 µM
inhibition at 10 µM ([2]; Rattus norvegicus, Rat2, Table 3, at 10 μM, read-out: Src Cells IC50 μM or % inhib at 10 μM (% values)): 61%
Src Cells IC50 μM or % inhib at 10 μM (% values) ([2]; Table 3, at 10 μM): 45%
melting point: 184 to 185 °C
GI50 [3]: > 10 µM
